Results: US11952582B2, “Herbicide-resistance gene and application thereof in plant breeding” (priority 2017, dated 2024)

How the values were obtained:
PaHPPD-SDM = PaHPPD-SDM (Pseudomonas aeruginosa, UniProt Q9I576, A156V/E349K/R282S); conditions: higher doses in the range 0-60 of herbicide
Text: Specifically, the presence of tyrosine aminotransferase in E. coli DH5a can catalyze the production of p-hydroxyphenylpyruvate (4-HPP) from tyrosine, which is used as a substrate for HPPD to produce homogentisic acid (HGA). After further oxidation and polymerization, a brown substance is produced. The addition of HPPD inhibitors will inhibit this reaction, thereby reducing the production of pigment. Therefore, the gradation of pigment can be used as an inhibition index of HPPD activity. […] Through heterologous expression of HPPD mutant genes from different species in E. coli DH5α, the resistance characteristics of E. coli DH5α-mutated gene to triketone herbicides were analyzed by detecting the absorption value of pigment at 405 nm (FIGS. 2-6, 8 and 9).
The PaHPPD mutants obtained by random mutation was cloned into E. coli cells together with wild-type PaHPPD and AtHPPD for comparation and screening.
The bacteria solution shaking cultured overnight at 37° C. was centrifuged, and 200 μL of supernatant was transferred to a sterile 96-well plate (microplate with high throughput characteristics) using a 200 μL pipette on an ultra-clean workbench. The pigment content was measured with a microtiter plate reader at a wavelength of 405 nm (OD405 nm), and the HPPD activity was evaluated according to the size of the OD value.
Then the obtained PaHPPD-SDM mutant was compared with its parental mutants (PaHPPD-M3, PaHPPD-DS18, and PaHPPD-DS73) to understand their ability of brown pigmentation in the presence of triketone herbicides at different doses (0-60 μM). The calculation formula of HPPD activity (%) is as follows: HPPD activity(%)=(Am/Ac)×100
Wherein Am refers to the average value of the absorbance at a specific herbicide dose, and Ac refers to the average value of the absorbance without the herbicide.

[1] = system: Arabidopsis WT (Col0), OE At, OE Pa, OE M3 lines; assay: Arabidopsis seed germination test on herbicide-containing 1/2 MS medium; format: in vivo, Arabidopsis thaliana; conditions: 2 weeks
Procedure: In order to evaluate the resistance of different HPPD overexpression lines to herbicides, Arabidopsis seed germination tests were performed on media containing different concentrations of herbicides. T3 generation Arabidopsis seeds and Co10 (WT) seeds were performed steam surface sterilization (concentrated HCl: NaClO=1:5, v/v) for 3 h. Seeds of OE At (OE At #1, OE At #2), OE Pa (OE Pa #1, OE Pa #2), OE M3 (OE M3 #1, OE M3 #2) and Co10 (WT) were dibbled together in ^1/2 MS medium (0.5 x MS salt, 1% sucrose and 0.8% agar) in a 24-well plate, and the medium contained different concentrations (0, 31.25, 62.5, 125, 500 and 2000 nM) of mesotrione (Sigma Aldrich, USA) and sulcotrione (Sigma Aldrich, USA). Then, the plate dibbled seeds was placed in the dark at 4° C. for 3 d, and then transferred to a growth chamber at 22° C. (16 h light/8 h dark) for 2 weeks. Three biological replicates were performed per treatment per species. After 2 weeks, the test results were photographed.

Sequence of PaHPPD-SDM (Q9I576 whole entry A156V/R282S/E349K): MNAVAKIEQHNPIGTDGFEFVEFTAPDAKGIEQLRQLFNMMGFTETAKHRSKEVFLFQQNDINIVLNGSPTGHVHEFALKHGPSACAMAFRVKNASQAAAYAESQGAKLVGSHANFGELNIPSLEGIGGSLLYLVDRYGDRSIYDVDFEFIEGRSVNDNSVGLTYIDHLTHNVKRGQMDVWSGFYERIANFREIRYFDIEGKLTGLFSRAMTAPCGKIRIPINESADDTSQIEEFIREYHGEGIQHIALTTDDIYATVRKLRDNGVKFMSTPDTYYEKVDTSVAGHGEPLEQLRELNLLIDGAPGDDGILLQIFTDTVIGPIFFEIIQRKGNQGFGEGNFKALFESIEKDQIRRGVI

SMILES | resistance by HPPD activity (%) compared with WT, PaHPPD-M3, PaHPPD-DS18 and PaHPPD-DS73 (PaHPPD-SDM) | concentration giving albino death / severely inhibited growth ([1]; OE At (two lines) and WT) [nM] | concentration at which seedlings grow normally ([1]; OE Pa (two lines), T3 seeds) [nM]
CS(=O)(=O)c1ccc(C(=O)C2C(=O)CCCC2=O)c(Cl)c1COCC(F)(F)F [tembotrion] | improved the resistance |  | 
CS(=O)(=O)c1ccc(C(=O)C2C(=O)CCCC2=O)c(Cl)c1 [sulcotrione] | improved the resistance | 31.25 | 62.5
